Data on 85 compounds can be found in a melting point compilation (Tetko et al.; mined from patent text by program, amines drawn as free bases though some values may be those of a salt).

Molecules are shown by their SMILES.

As a reminder, the melting point is the temperature, or range, at which the solid turns liquid. For the compound `Cc1c(C)c2c(c(C)c1N)CC(C)(CCc1ccc(F)cc1)O2` (stereo not given), the melting point is 62 to 63 °C. The same measure for `CCOC(=O)Cn1nnc(-c2cccc(OCc3ccc4ccccc4n3)c2)n1`: 111 to 113 °C; for `O=c1[nH]c2c3ccccc3ccc2n(C2CCCCC2)c1=O`: 288 °C; for `CC1(C)OC(=O)c2ccc(CO)cc21`: 59 to 63 °C. Then `O=C(O)Cn1c(=O)c(=O)[nH]c2cc([N+](=O)[O-])c(-n3ccc(CN4CCN(Cc5ccccc5)CC4)c3)cc21`, with greater than 230 °C. The same measure for `O=C(CCN1C(=O)c2ccccc2C1=O)c1ccc(Cl)cc1C(=O)c1ccccc1`: 163 to 164 °C; for `COC(=O)c1c(Br)ccc2nn(C)c(C)c12`: 109 to 111 °C; for `O=c1cc(-c2cnccn2)ss1`: 181 °C. As for `O=[N+]([O-])c1c(O)ccc2cc(-c3ccc(O)cc3)ccc12`, the melting point lay within 199 to 201 °C. Compound `COc1ccc(C(=O)C2=C(O)C(=O)N(c3nnc(C(C)C)s3)C2c2ccc(C(C)(C)C)cc2)cc1` (stereo not given) had a melting point of 257 °C. The compound `C1=C(c2cc(-c3ccccc3)no2)CCN(Cc2c[nH]c3ncccc23)C1` yielded a melting point of 224 to 226 °C. Regarding `O=C(O)CNC(=O)c1ccc([N+](=O)[O-])cc1[N+](=O)[O-]`, the melting point was 188 to 190 °C.

The compound `CCC(=O)c1ccc2c(c1)OCC(=O)N2` displayed a melting point of 174 to 176 °C. The same measure for `O=C(O)c1cccc(-c2ccnc3c(C(=O)c4cccs4)cnn23)c1`: 174 to 177 °C. Regarding `CNC(=S)NS(=O)(=O)c1cc(CCNC(=O)c2cc(Cl)ccc2OC)ccc1-c1ccccc1`, the melting point is 192 to 196 °C. The same measure for `CN(C)C1Cc2cc(Br)cc([N+](=O)[O-])c2NC1=O` (stereo not given): 162 to 165 °C; for `CC(C)c1c(CCl)c(-c2ccc(F)cc2)nn1-c1ccccc1`: 124 to 128 °C; for `O=C(Nc1cccc2cc(Cn3ccnc3)cnc12)c1c(Cl)cccc1Cl`: 177 to 179 °C. `CCCCc1nc2c([nH]c(=O)c3ccccc32)s1` yielded a melting point of 172 to 173 °C. Then `CCC(CC)C(=O)OC1CC(C)C=C2C=CC(C)C(CCC3CC(O)CC(=O)O3)C21` (stereo not given), with 120 to 122 °C; and `COc1ccc2c(c1)C(C)(C)NC(=O)O2`, with 178 to 180 °C. The same measure for `C=CCn1c(NC)n[nH]c1=S`: 129 to 131 °C; for `CC(=O)Nc1cc(Cl)c(C)c(Cl)c1O`: 175 to 176 °C. Take `COC(=O)c1cc(-c2nnn(Cc3ccc(OC)cc3)n2)ccc1OC`: the melting point lay within 110 to 111 °C. The compound `Cc1c(-c2ccc(NC(=O)C(C)C)cc2)sc2ncc(C(=O)C(C)C)c(O)c12` gave a melting point of 247 to 249 °C. As for `CNc1ccccc1CS(=O)c1nccn1-c1ccccn1` (stereo not given), the melting point fell in the range of 135 to 137 °C. `CCCCc1nc(Cl)c(CO)n1Cc1ccc(-c2cccc(C(=O)O)c2)cc1`: the melting point fell in the range of 180 to 181 °C. Then `CCCCC#Cc1cc(C=CCC(=O)O)ccc1OC`, with 102 °C; and `O=c1oc2c(-c3ccccc3)cccc2c(OCCN2CCOCC2)c1-c1ccccc1`, with 106 to 108 °C. Take `CC1CCCC(C)N1Cc1ccc2cc(NC(=O)c3ccc(-c4ccccc4)cc3)ccc2n1` (stereo not given): the melting point fell in the range of 180 to 181 °C.

In turn, `COc1ccccc1N1CC[N+]([O-])(CCN(C(=O)C2CCCCC2)c2ccccc2[N+](=O)[O-])CC1` gave a melting point of 128 to 132 °C.

Compound `CC(C#N)c1ccc(-c2nc3ccccc3o2)cc1` (stereo not given) registered a melting point of 116 to 117 °C. Then `CN(C)C(=O)Sc1cc(SC(=O)N(C)C)cc(C(N)=O)c1`, with 264 to 265 °C; and `CCOC(=O)c1ncn(-c2cc(C(=O)OC)c([N+](=O)[O-])cc2C(F)(F)F)n1`, with 190 to 192 °C.

The compound `CCCCCCCCOc1ccc(-c2ccc(OCCCCCCCC)c(F)c2)cc1F` returned a melting point of 84 °C.

Compound `C=CCOC(=O)COC(=O)c1c(Br)c(Br)c(C(=O)OCC(=O)OCC=C)c(Br)c1Br` returned a melting point of 146 to 148 °C. Then `OC(CNCCC1c2ccccc2COc2ccccc21)COc1ccccc1` (stereo not given), with 136 to 138 °C; and `CCCc1c(OCCCCCCc2cc(O)c(O)c(C(C)C)c2)ccc(C(=O)O)c1O`, with 138 to 140 °C. Regarding `Cc1nsc(OCC(F)(F)F)c1S(N)(=O)=O`, the melting point was in the range of 148 to 149 °C.

Regarding `CC(C)NC(=NC(=O)OC(C)(C)C)N=C1NC(=O)C(=O)N1c1ccc(Cl)c(Cl)c1`, the melting point worked out at 227 °C. The same measure for `CN(C)c1ccc(N=Nc2ccc(C(=O)Nc3ccc4[nH]nnc4c3)cc2)cc1`: 246 °C; for `NP(N)(=O)NC(=O)C=Cc1ccccc1`: 176 to 178 °C. Then `CC12CCC(O[Si](C)(C)C(C)(C)C)CC1=CC(=O)C1C2CCC2(C)C(O[Si](C)(C)C(C)(C)C)CCC12` (stereo not given), with 99 to 101 °C; and `Cn1c(C(F)(F)F)cc(=O)n(-c2nc(Cl)c(C#N)cc2F)c1=O`, with 146 to 148 °C; and `C[Si](C)(C)C#Cc1cc2cccnc2c(-c2cccc([N+](=O)[O-])c2)n1`, with 160 to 163 °C.

Compound `O=C1c2cc(I)ccc2-n2c1nc1ccccc1c2=O` showed a melting point of 296 to 297 °C. Then `CC(=O)OCC1OC(n2cc(C(I)=CI)c(=O)[nH]c2=O)CC1OC(C)=O` (stereo not given), with 76 to 78 °C; and `OC1CCCc2cnc3cc(OCc4ccccc4)ccc3c21` (stereo not given), with 155 to 157 °C; and `O=C(c1ccc(Cc2ccc(F)cc2)o1)c1occ(Br)c(=O)c1O`, with 191 to 192 °C. The compound `Cc1ccc(S(=O)(=O)OC[C@H](CNC(=O)c2ccc(Cl)s2)OC(=O)Nc2ccc(N3CCOCC3=O)cc2)cc1` displayed a melting point of 142 °C. For the compound `COc1ccc(C(C)N(C)CCCCOc2ccc(S(=O)(=O)c3c(C(C)C)cn4ccccc34)cc2)cc1OC` (stereo not given), the melting point was in the range of 84 to 86 °C.

Regarding `CN(C)CCCCC(=O)N1CCC(c2[nH]nc3c2C(=O)c2c(NC(=O)NN4CCOCC4)cccc2-3)CC1`, the melting point is 68 to 70 °C.

The compound `CC(=O)OCCN(C(=O)Cn1c(=O)n(C)c2nc(-c3ccccc3)ncc21)c1ccccc1` came in with a melting point of 158 to 160 °C. The compound `Nc1cc(C(=O)O)cc(S(N)(=O)=O)c1Sc1ccccc1` gave a melting point of 285 °C.

As for `CCOc1ccccc1-c1nc2c(OC)cccc2c(=O)[nH]1`, the melting point is 198 to 199 °C. For `CCCCOc1c(CNC(=O)OC(C)(C)C)n(CC(C)C)c(=O)c2ccc(-c3noc(C)n3)cc12`, the melting point came to 152 °C.

The compound `COc1cc(C#N)ccc1C(=O)Nc1cc(Cl)c(Cl)cc1N` displayed a melting point greater than 250 °C. In turn, `OC(COc1ncnc2nc[nH]c12)CN1CCN(C(c2ccccc2)c2ccccc2)CC1` (stereo not given) returned a melting point of 115 °C. Then `COC(=O)c1[nH]c2ccc(C)cc2c1Sc1ccc(Cl)cc1`, with 230 to 233 °C; and `CCOC(=O)c1cc2cc(/C=C/C(=O)c3cc(OC)c(OC)c(OC)c3)cc(C(C)CC)c2oc1=O` (stereo not given), with 138 to 139 °C. The same measure for `O=P(O)(O)C(O)(CCc1nn(-c2ccc(F)cc2)cc1-c1ccc(Cl)cc1)P(=O)(O)O`: 223 °C; for `CC(C)(C)c1cc(CCc2ccccc2NC(=O)NC2CCN(Cc3cccnc3)CC2)cc(C(C)(C)C)c1O`: 156 to 158 °C.

As to `CC(=O)Nc1ccc(Cc2nc3c(c4c2[nH]c2ccccc24)C(=O)CC(C)(C)C3)cc1`, the melting point was in the range of 153 to 154 °C. Then `CCCCn1c(Cc2cc(OC)ccc2Cl)nc2c(N)ncnc21`, with 138 to 139 °C; and `O=C(O)CCCCN(C(=O)c1ccc(Cl)cc1)c1cccc2ccccc12`, with 169 to 170 °C; and `COc1ccc(/C=C/C(=O)Nc2ccccc2C(=O)OCC(=O)O)cc1OC`, with 206 to 209 °C.

Consider `CSCC(C)(C)NC(=O)c1c(I)cccc1-c1ccc(C(F)(F)F)cc1`, for which the melting point lay in the range of 194 to 196 °C. On to `COc1cccc(CNC(=O)c2nc3scc(COc4ccc(C(=O)O)cc4)c3c(=O)[nH]2)c1`, for which the melting point lay within 297 to 299 °C. With `CC(C)C(NC(=O)Cn1cccc(NC(=O)Nc2ccccc2)c1=O)C(=O)C(F)(F)F` (stereo not given), the melting point lay in the range of 94 to 106 °C. Then `CCCCCCCCc1cnc(-c2ccc(F)cc2)nc1`, with 23.5 °C.

Compound `COc1cc2c(cc1OCc1ccccc1)CCN(Cc1ccc(C#N)cc1)C2` displayed a melting point of 161 to 162 °C. The same measure for `Cn1ncc(C(=O)c2ccc(S(C)(=O)=O)c(C3=NOCC3)c2Cl)c1O`: greater than 250 °C. The same measure for `COc1ccc2cnc3c(c2c1)NC(=O)CC3`: 254 to 256 °C; for `CC(=O)Nc1ccc(OCCOc2ccccc2)cc1[N+](=O)[O-]`: 104 to 106 °C; for `CCn1ncc2c3c(NCc4ccc(OC)c(Cl)c4)nnc(N4CCC(O)CC4)c3cnc21`: 109 to 110 °C. In turn, `CC(=O)C1=NN(c2ccc(C(=O)O)c(Cl)c2)C(=O)C1` came in with a melting point greater than 250 °C. Then `CSC(=NCCSCc1ccc(CN(C)C)o1)NC#N`, with 78 to 79 °C; and `O=C(O)CCc1cn(Cc2ccc(OCc3csc(-c4ccco4)n3)cc2)cc1-c1ccccc1`, with 114 to 115 °C. `COC(=O)Cc1coc2cc(OCc3cc(-c4ccc(Cl)cc4)on3)ccc12` had a melting point of 136 to 137 °C. Regarding `CCOC(=O)N(c1cccc(C(F)(F)F)c1)c1ccccc1N`, the melting point is 105 to 108 °C. In turn, `CNc1nc(-c2cccc(-c3cncc(SC)c3)c2)c2cc(OC)c(OC)cc2n1` displayed a melting point of 184 to 186 °C. The same measure for `Cc1ccc(C(=O)NNC(=O)c2ccccc2Cl)cc1`: 204 to 206 °C; for `COC(=O)C=CC(CNC(=O)C(C)(Cc1c[nH]c2ccccc12)NC(=O)OC1C2CC3CC(C2)CC1C3)c1ccccc1` (stereo not given): 80 to 93 °C; for `COC(=O)C1CC2(CN1C(=O)CN(C)CC(=O)C(Cc1ccccc1)NC(=O)c1ccccc1)SCCS2` (stereo not given): 60 to 62 °C. Then `CCOC(=O)c1nc2n(n1)-c1sc(C)c(C)c1C(c1ccccc1)=NC2`, with 173 to 174 °C.
